Here are results for one molecule from patent US12558376B2, “Tissue repair by activated cells” (TECHNION RESEARCH & DEVELOPMENT FOUNDATION LIMITED, priority 2018, dated 2026).

The test system of experiment [1] is mesenchymal stem cells (MSCs). The experiment is described as follows: Cytokine array of MSC conditioned medium (secretome). It is filed as cell-based, human. Particulars: gemcitabine-activated vs untreated MSCs. The protocol: Human bone marrow MSCs (LONZA, Switzerland) were cultured in minimum essential medium-alpha (αMEM) supplemented with 10% FBS 1% L-glutamine, 1% sodium-pyruvate, and 1% streptomycin. Medium was replaced every 3 days, and cells were maintained in culture for up to 7 passages.
After 72 hours, CM was collected.
The signals corresponding to each factor in the array were quantified by densitometry analysis.

For experiment [2], the system named is PANC1 tumors. The experiment is described as follows: Subcutaneous PANC1 tumors treated with gemcitabine: MSC homing. It is filed as in vivo. Particulars: PANC1 tumors in SCID mice, gemcitabine 500 mg/kg, after 72 hours; for MSC homing to tumors and proximity to CSCs (immunostaining): vs untreated control. How it is done:
Eight-to-ten-week-old SCID mice were subcutaneously implanted with PANC1 cells (n=5 mice/group). […] Nuclei were stained with DAPI (blue). Red arrows represent CSCs whereas white arrows represent MSCs. Scale bar, 100 μm. FIG. 1B: Right Left side is a graph showing the distance between MSCs and CSCs as was measured and plotted (n>15 fields/group) and FIG. 1B left-right side is a graph showing the percentage of MSCs in tumor single cell suspensions was quantified by flow cytometry. […] After 3 days, the percentage of TICs in culture was assessed by flow cytometry. The use of animals and experimental protocols were approved by the Animal Care and Use Committee of the Technion. Human PANC1 (5×10^6 cells) were subcutaneously injected into the flank of eight-to-ten-week-old CB.17 female SCID mice (Harlan, Israel). Tumor size was assessed regularly with Vernier calipers using the formula width^2×length×0.5. […] Tumors or […] were embedded in […], Japan) and subsequently frozen at -80° C. […] Sections were fixed in cold acetone for 15 minutes. CSCs were stained with PE-conjugated antibodies against human prominin-1 (CD133, 1:250, Macs MiltenyiBiotec). […] Tumor sections were analyzed with a camera attached to an inverted microscope (Leica CTR 6000) using Leica Application suite Version 3.4.0 software or a LSM 700 Zeiss confocal microscope (Zeiss, Germany). Nuclei were stained with DAPI (Electron Microscopy Sciences, PA, USA).

As for `Nc1ccn([C@@H]2O[C@H](CO)[C@@H](O)C2(F)F)c(=O)n1` [gemcitabine], the “CXCL10 secretion in conditioned medium of MSCs” value in experiment [1] is “highly elevated”. In addition, in experiment [2], the “recruitment of MSCs to pancreatic tumors (percentage of MSCs, flow cytometry)” value is on record as “massive recruitment of MSCs”; the “MSC homing to tumors and proximity to CSCs (immunostaining)” value was “MSCs home to tumors and locate in close proximity to CSCs”. For the same molecule, in experiment [2] (listed as Gemcitabine), the “MSC homing to tumors and proximity to CSCs (immunostaining)” value is “promotes MSCs homing to tumors”.
